Assay results reported in patent US7419997B2, “Tetrahydrocarbazole derivatives and their pharmaceutical use” (SmithKline Beecham Corporation, priority 2003, dated 2008).

Tested on: episomal HPV16 DNA in W12-20850 cells
Assay: W-12 cellular assay (episomal HPV-16 DNA, hybrid capture)
Type: cell-based, HPV16 (human papillomavirus)
Conditions: Human papillomavirus 16, 96 h, four days incubation, episomal HPV-16 DNA quantified by hybrid capture, inhibition relative to untreated control cells
Experimental: Compounds of the current invention are believed useful in the treatment and/or prophylaxis of conditions and diseases associated with HPV infection. Activity mediated through HPV was determined using the following W-12 cellular assay.
The W12 cell line used contains HPV16 DNA and was derived from a low-grade cervical dysplasia tissue by Margaret Stanley and subsequently clonally selected by Paul Lambert (University of Wisconsin). One of these clones, W12-20850, contains 1000 copies of episomal HPV16 DNA and was used in the cell-based assay. W12-20850 cells were routinely cultured with a gamma-irradiated (6000 rads) feeder layer of 3T3 cells. Assays, however, were run in the absence of a 3T3 feeder layer. W12-20850 and 3T3 cells were routinely split when they were sub-confluent. W12-20850 were grown in W12 Medium which is constituted of 25% DMEM (Gibco BRL, Cat # 12430-047), 75% F12 Media (Gibco BRL, Cat # 11765-021) and 2.5% FBS. The additives include […] Adenine (Sigma, Cat # A-9795), 0.4 mg/ml Hydrocortisone (Calbiochem, Cat # 386698), […] Bovine Insulin (Sigma, Cat # I-1882), 8.4 ng/ml cholera toxin (Fluka, Cat # 26694) and 10 ng/ml EGF (Invitrogen, Cat # 13247-051). 3T3 cells were grown in DMEM containing 10% FBS. Cell lines were incubated at 37° C., in the presence of 5% CO2.
For the assay, W12-20850 cells were seeded into a 96 well plate-containing compound. Plates were incubated at 37° C. in the presence of 5% CO2, for four days. On the fourth day, cells were lysed and the amount of episomal HPV-16 DNA was quantified using a non-radioactive hybrid capture technique with HPV-16 specific capture and detection probes. The percent inhibition relative to untreated control cells was then determined.
The hybrid capture assay is run in a 96 well plate format. Hybridization plates (Nunc Maxisorb Cat # 450320) were coated with a mixture of capture probe and ReactiBind solution for at least 4 hours and then washed with 0.2)(SSC, 0.05% Tween20 (SSCT) prior to blocking with 150 μl/well of 0.2 N NaOH, 1% Igepal, 10 mg/ml hsDNA for 6-8 hours. The hybridization was carried out by mixing 271 μl of lysed cells with 45 μl of denatured detection probe in 6M guanidine isothiocyanate. To prevent evaporation, 50 μl of mineral oil was added to each well. The plate was then heated to 90° C. for 6.5 minutes and the hybridization continued at 42° C. overnight. Assay plates were washed 6 times with SSC/T. Anti-digoxigenin HRP-conjugated Ab (Boehringer Mannheim 1207733, 1:5000) was incubated in the wells for 30 min at room temperature and washed with PBS/0.05% Tween-20. SuperSignal LBA substrate (Pierce Cat # 37070) was added, and chemiluminescence was measured using Wallac 1420 Victor plate reader.

Row | SMILES | IC50 [nM]
1 | COc1ccc(NC(=O)NC2CCCc3c2[nH]c2ccc(Br)cc32)c(C)c1 (centres unmarked) [Example 11, N-(6-Bromo-2,3,4,9-tetrahydro-1H-carbazol-1-yl)-N′-(4-methoxy-2-methylphenyl)urea] | > 1000
2 | O=S(=O)(NC1CCCc2c1[nH]c1ccc(Br)cc21)c1ccccc1F (centres unmarked) [Example 53, N-(6-bromo-2,3,4,9-tetrahydro-1H-carbazol-1-yl)-2-fluorobenzenesulfonamide] | 51
3 | O=C(N[C@H]1CCCc2c1[nH]c1ccc(Cl)cc21)c1ccccn1 [Example 45C, N-[(1S)-6-chloro-2,3,4,9-tetrahydro-1H-carbazol-1-yl]pyridine-2-carboxamide] | 6000
4 | O=C(NC1CCCc2c1[nH]c1ccc(Cl)cc21)c1ccccc1 (centres unmarked) [Example 36A, N-(6-Chloro-2,3,4,9-tetrahydro-1H-carbazol-1-yl)benzamide] | 60
5 | COc1cccc(C(=O)NC2CCCc3c2[nH]c2ccc(Br)cc32)c1 (centres unmarked) [Example 27, N-(6-Bromo-2,3,4,9-tetrahydro-1H-carbazol-1-yl)-3-methoxybenzamide] | 28
6 | O=C(NC1CCCc2c1[nH]c1ccc(Cl)cc21)c1ccccc1F (centres unmarked) [Example 46A, N-(6-Chloro-2,3,4,9-tetrahydro-1H-carbazol-1-yl)-2-fluorobenzamide] | 12
7 | O=C(N[C@@H]1CCCc2c1[nH]c1ccc(Br)cc21)c1ccccc1 [Example 14B, N-[(1R)-6-bromo-2,3,4,9-tetrahydro-1H-carbazol-1-yl]benzamide] | 10
8 | Cc1ccc(C(=O)NC2CCCc3c2[nH]c2ccc(Br)cc32)cc1 (centres unmarked) [Example 24, N-(6-Bromo-2,3,4,9-tetrahydro-1H-carbazol-1-yl)-4-methylbenzamide] | 8
9 | O=C(CCc1ccccc1)NC1CCCc2c1[nH]c1ccc(Br)cc21 (centres unmarked) [Example 16, N-(6-Bromo-2,3,4,9-tetrahydro-1H-carbazol-1-yl)-3-phenylpropanamide] | 1200
10 | Cc1ccc2[nH]c3c(c2c1)CCCC3NC(=O)c1ccccc1 (centres unmarked) [Example 35, N-(6-Methyl-2,3,4,9-tetrahydro-1H-carbazol-1-yl)benzamide] | 184
11 | O=C(NC1CCCc2c1[nH]c1ccc(Br)cc21)c1ccccc1F (centres unmarked) [Example 29, N-(6-Bromo-2,3,4,9-tetrahydro-1H-carbazol-1-yl)-2-fluorobenzamide] | 9
12 | O=C(Nc1ccccc1)NC1CCCc2c1[nH]c1ccc(Cl)cc21 (centres unmarked) [Example 44, N-(6-Chloro-2,3,4,9-tetrahydro-1H-carbazol-1-yl)-N′-phenylurea] | 1700
13 | Cn1nccc1C(=O)NC1CCCc2c1[nH]c1ccc(Cl)cc21 (centres unmarked) [Example 48, N-(6-Chloro-2,3,4,9-tetrahydro-1H-carbazol-1-yl)-1-methyl-1H-pyrazole-5-carboxamide] | 2240
14 | O=C(NC1CCCc2c1[nH]c1ccc(Br)cc21)c1c(Cl)cccc1Cl (centres unmarked) [Example 19, N-(6-Bromo-2,3,4,9-tetrahydro-1H-carbazol-1-yl)-2,6-dichlorobenzamide] | 5800
15 | O=C(NC1CCCc2c1[nH]c1ccc(Br)cc21)c1ccccc1[N+](=O)[O-] (centres unmarked) [Example 31, N-(6-Bromo-2,3,4,9-tetrahydro-1H-carbazol-1-yl)-2-nitrobenzamide] | > 7300
16 | Cn1cncc1C(=O)NC1CCCc2c1[nH]c1ccc(Cl)cc21 (centres unmarked) [Example 47, N-(6-Chloro-2,3,4,9-tetrahydro-1H-carbazol-1-yl)-1-methyl-1H-imidazole-5-carboxamide] | 810
17 | O=C(NC1CCCc2c1[nH]c1ccc(Br)cc21)c1ccccc1 (centres unmarked) [Example 14A, N-(6-Bromo-2,3,4,9-tetrahydro-1H-carbazol-1-yl)benzamide] | 32
18 | O=C(Cc1ccccc1)NC1CCCc2c1[nH]c1ccc(Br)cc21 (centres unmarked) [Example 15, N-(6-Bromo-2,3,4,9-tetrahydro-1H-carbazol-1-yl)-2-phenylacetamide] | 580
19 | Cc1ccc(S(=O)(=O)NC2CCCc3c2[nH]c2ccc(Br)cc32)cc1 (centres unmarked) [Example 37, N-(6-Bromo-2,3,4,9-tetrahydro-1H-carbazol-1-yl)-4-methylbenzenesulfonamide] | 24
20 | O=C(Nc1ccccc1)NC1CCCc2c1[nH]c1ccc(Br)cc21 (centres unmarked) [Example 9, N-(6-Bromo-2,3,4,9-tetrahydro-1H-carbazol-1-yl)-N′-phenylurea] | 548
